Source: US20060142593A1, “Platinum compounds” (Sonus Pharmaceuticals, Inc., priority 2002, published 2006)

Columns and labels:
HT-29 cells [1] = conditions: HT-29, previously determined NCI values; cited from earlier work
OVCAR-3 cells [2] = test: Cytotoxicity assay (sulforhodamine B), OVCAR-3; type: cell-based; conditions: OVCAR-3, Assay 6, 48 h drug exposure
Description: (§1) Methods. NCI-H460, HCT-15, OVCAR-3, CACO-2, MCF-7, HT-29, and HCT-116 cells were inoculated into 96 well microtiter plates in 100 microliters of medium at plating densities ranging from 5000 to 40000 cells/well, as given by NCI tables. After cell inoculation, the microtiter plates were incubated at 37° C., 5% CO2, 95% air, and 100% relative humidity for 24 hours. After 24 hours, 2 control plates of each cell line (time zero controls) were fixed by the addition of 30% trichloroacetic acid (TCA, final TCA concentration is 10% w/v). S-9168 was solubilized in saline. […] Additional 4, 10 fold, or ½ log serial dilutions were made to provide a total of five drug concentrations plus controls. Aliquots of 100 microliters of different drug dilutions were added to the appropriate microtiter wells already containing 100 microliters of medium. Following drug addition, the plates were incubated for an additional 48 hours under the same conditions provided above. The assays were terminated by the addition of cold TCA as described above for the time zero controls. The plates were then incubated at 4° C. for at least 60 minutes to fix the cells to the bottom of the plate. […] After staining, unbound dye was removed by washing five times with 1% acetic acid and the plates were allowed to air dry for 12-24 hours at room temperature. […]

HCT-15 cells [3] = conditions: HCT-15, previously determined NCI values; cited from earlier work
NCI-H460 cells [4] = conditions: NCI-H460, previously determined NCI values; cited from earlier work
HCT-116 cells [5] = conditions: HCT-116, previously determined NCI values; cited from earlier work
rats [6] = test: Blood urea nitrogen (BUN) as measure of renal function (Example 8); type: in vivo; conditions: rat plasma, 8 mg/kg cisplatin, 9.9 mg/kg carboplatin, 19.6 mg/kg S-9168
Description: (§2) Methods. Four groups of eight rats were cannulated as described in Example 6. […] The fourth group of rats was dosed with saline. Two rats in each group were sacrificed on days 4, 6, and 8 after treatment and 2 ml of blood were withdrawn. The blood sample was spun at 8000 rpm. for 2 minutes and the plasma was removed. BUN assays were performed using the Sigma Blood Urea Nitrogen Kit (Sigma Diagnostics Co., St. Louis, Mo.; Cat. No. 535-A).

NCI-H460 cells [7] = test: Cytotoxicity assay (sulforhodamine B), NCI-H460; type: cell-based
Description: as §1

rats [8] = test: Plasma creatinine as measure of renal function (Example 7); type: in vivo; conditions: rat plasma, 8 mg/kg cisplatin, 9.9 mg/kg carboplatin, 19.6 mg/kg S-9168
Description: Methods. Three groups of two rats were cannulated in the jugular vein and allowed to recover for approximately 24 hours. […] Blood samples (1.8 ml) were taken via the jugular vein canal before treatment (day 0) and 1, 2, 3, and 4 days after treatment, spun at 8000 rpm. for 2 minutes, and the plasma was removed. Creatinine assays were performed using the Sigma Creatinine Kit (Sigma Diagnostics Co., St. Louis, Mo.; Cat. No. 555-A) according to the Sigma creatinine assay protocol, in which the difference in color intensity at 500 nm of a sample containing creatinine and alkaline picrate solution before and after acidification is measured. The limit of linearity for the UV spectrophotometer was established by using the calibration curve procedure in the Sigma creatinine assay protocol.
as §2, with “Creatinine” for “BUN”, “as described in Example 6.” for “using the Sigma Blood Urea Nitrogen Kit (Sigma Diagnostics Co., St. Louis, Mo.; Cat. No. 535-A).”

MCF-7 cells [9] = conditions: MCF-7, previously determined NCI values; cited from earlier work
HCT-15 cells [10] = test: Cytotoxicity assay (sulforhodamine B), HCT-15; type: cell-based
Description: as §1

OVCAR-3 cells [11] = conditions: OVCAR-3, previously determined NCI value; cited from earlier work
HCT-116 cells [12] = test: Cytotoxicity assay (sulforhodamine B), HCT-116; type: cell-based; conditions: HCT-116, Assay 9, 48 h drug exposure
Description: as §1

MCF-7 cells [13] = test: Cytotoxicity assay (sulforhodamine B), MCF-7; type: cell-based
Description: as §1

HT-29 cells [14] = test: Cytotoxicity assay (sulforhodamine B), HT-29; type: cell-based; conditions: HT-29, Assay 8, 48 h drug exposure
Description: as §1

In the case of `N.N.O=C([O-])C1(C(=O)[O-])CCC1.[Pt+2]` [Carboplatin, cis-diamine[1,1-cyclobutnaedicarboxylate(2-)-O,O′-platinum(II)], the “GI50 (log), NCI values” (HT-29 cells [1]) is listed as “(−4.41) Pt mg/ml (log)”, the “GI50 (log)” value (OVCAR-3 cells [2]) is listed as “(−4.82) Pt mg/ml (log)” and the “GI50 (log), NCI values” (HCT-15 cells [3]) is listed as “(−4.31) Pt mg/ml (log)”. For the same compound, the “GI50 (log), NCI values” (NCI-H460 cells [4]) was “(−5.21) Pt mg/ml (log)”, the “GI50 (log), NCI values” (HCT-116 cells [5]) was “(−4.51) Pt mg/ml (log)” and the “average BUN level” value (rats [6]; day 4) was 28.92 mg/dL. For the same compound, the “average BUN level” value (rats [6]; day 6) was 21.59 mg/dL, the “average BUN level” value (rats [6]; day 8) was 25.52 mg/dL and the “GI50 (log)” value (NCI-H460 cells [7]; NCI-H460, Assay 2, 48 h drug exposure) was “(−4.96) Pt mg/ml (log)”. For the same compound, the average creatinine level (rats [8]; day 4) was 0.6659 mg/dL, the average creatinine level (rats [8]; day 6) was 0.7039 mg/dL and the average creatinine level (rats [8]; day 8) was 0.5402 mg/dL. The “GI50 (log), NCI values” (MCF-7 cells [9]) was “(−4.61) Pt mg/ml (log)”, the “GI50 (log)” value (HCT-15 cells [10]; HCT-15, Assay 2, 48 h drug exposure) was “(−4.31) Pt mg/ml (log)” and the “GI50 (log), NCI value” (OVCAR-3 cells [11]) was “(−4.91) Pt mg/ml (log)”.
In the case of `N.N.[Cl][Pt][Cl]` [Cisplatin, cis-diaminedichloroplatinum(II)], the “GI50 (log), NCI values” (HT-29 cells [1]) is given as “(−5.82) Pt mg/ml (log)”, the “GI50 (log), NCI values” (HCT-15 cells [3]) is given as “(−5.82) Pt mg/ml (log)” and the “GI50 (log)” value (HCT-116 cells [12]) is given as “(−6.13) Pt mg/ml (log)”. For the same compound, the “GI50 (log)” value (MCF-7 cells [13]; MCF-7, Assay 2, 48 h drug exposure) was “(−5.10) Pt mg/ml (log)”, the “GI50 (log)” value (MCF-7 cells [13]; MCF-7, Assay 7, 48 h drug exposure) was “(−6.14) Pt mg/ml (log)” and the “GI50 (log), NCI values” (NCI-H460 cells [4]) was “(−6.92) Pt mg/ml (log)”. For the same compound, the “GI50 (log), NCI values” (HCT-116 cells [5]) was “(−6.12) Pt mg/ml (log)”, the “GI50 (log)” value (NCI-H460 cells [7]; NCI-H460, Assay 1, 48 h drug exposure) was “(−6.98) Pt mg/ml (log)” and the “GI50 (log), NCI values” (MCF-7 cells [9]) was “(−6.22) Pt mg/ml (log)”. For the same compound, the “GI50 (log)” value (HT-29 cells [14]) was “(−5.99) Pt mg/ml (log)”, the “GI50 (log)” value (HCT-15 cells [10]; HCT-15, Assay 5, 48 h drug exposure) was “(−6.65) Pt mg/ml (log)” and the “GI50 (log), NCI value” (OVCAR-3 cells [11]) was “(−6.32) Pt mg/ml (log)”.
